A short description of data set [1]: Liver microsomal stability assay. The format is in vitro ADME. As to conditions: liver microsomes, pH 7.4. As to the method:
The incubation system (including 0.1 M PH 7.4 phosphate buffer, NADPH generation system, UGT incubation system, 0.5 mg/mL liver microsomal protein and appropriate concentration of drug to be tested) was incubated in a water bath at 37 °C for […]. Each sample was incubated three times in parallel, and an equal volume of pre-chilled acetonitrile was added at preset reaction time points, such as 0, 5, 10, 15, 30 and 60 min. The reaction was terminated by the addition of acetonitrile. The remaining content of the prototype drug in the warm incubation solution was determined by HPLC, HPLC-MC and HPLC-MC/MC.

The next data set has as its system ASPC1. Kind of data set: CCK8 antiproliferative assay. The format is cell-based. As to conditions: Homo sapiens, ASPC1, 72 h, read-out: IC50, cell proliferation. As to the method: (§1) For cytotoxicity assay, the cells grown in the logarithmic phase were seeded into 96-well plates (7 × 10^3 cells/well) for 24 h, then exposed to different concentrations (10, 5, 1, 0.1, 0.01 and 0.001 μM) of the test compounds for 72 h. After attached cells were incubated with CCK8 (Sigma, USA) for another 1–4 h. Then the absorbance at 450 nm was measured using a multifunction microplate reader (Molecular Devices, Flex Station 3), and each experiment was performed at least in triplicate.
(Tetrazolium assays rely on reduction of a dye to a coloured formazan, in cell work by metabolically active cells.)

Another data set has as its system HS746T. Kind of data set: CCK8 antiproliferative assay. The format is cell-based. As to conditions: Homo sapiens, Hs746T, 72 h, read-out: IC50, cell proliferation. As to the method: as §1
Another data set concerns MKN45. Kind of data set: CCK8 antiproliferative assay. As to conditions: Homo sapiens, MKN-45, 72 h, read-out: IC50, cell proliferation. The format is cell-based. As to the method:
as §1

Another data set concerns MHCC97H xenograft tumor. Kind of data set: MHCC97H xenograft tumor model. The format is in vivo, BALB/c nude mice. As to conditions: Tepotinib group (dose not given), ig, calculated through tumor weight. As to the method: (§2) Male BALB/c nude mice (5-week old, 18–20 g) were purchased from Beijing Vital River Laboratory Animal Technology (Beijing Vital River LaboratoryAnimal Technology Co., Ltd., Beijing,China) and allowed to acclimate for 1 week, maintained at constant room temperature and fed a standard rodent chow and water. 1 × 10^7 cells/mL cancer cells grown in logarithmic phase were harvested and resuspended in FBS-free 1640 medium. Then, 100 μL of the cell suspension was subcutaneously injected into the right flank of each mouse. When the tumour volume was reached about 600–800 mm^3, it was removed, minced into small pieces of equal volume (2 × 2 × 2 mm^3), and transplanted subcutaneously into the nude mice. When the tumour volume was reached about 200–400 mm^3, the xenograft tumour-bearing nude mice were randomly allocated to five groups (vehicle-treated, 1D228-2mgd-treated, 1D228-4mgd-treated […] Tepotinib-treated groups, with 6 or 8 mice (The number of mice were determined according to previous experience on xenograft tumor models) per group. Each group was dosed by intragastric administration (ig) for 7–14 days. Tumour volume and body weights were recorded every day after drug treatment. At the end of the observation period, the animals were euthanized by cervical dislocation and the tumour bulks were peeled off conformed to the Guide for the Care and Use of Laboratory Animals as published by the US National Institutes of Health (NIH Publication No. 85-23, revised 1996) and approved by the Institutional Ethics Review Board of Binzhou Medical University. There was no blinding was done during the animal experiment. No animals were excluded from the analysis.

The subject of a further data set is MKN45 xenograft tumor. Kind of data set: MKN45 xenograft tumor model. As to conditions: 8 mg/kg/d, ig. It counts as in vivo, BALB/c nude mice. As to the method:
as §2

The subject of the next data set is 284 kinases. The arrangement: method as in PMID 25736998. The following applies: 100 nM; 284 kinases tested; cited from earlier work.

Molecules are shown by their SMILES.

`CN1CCC(COc2cnc(-c3cccc(Cn4nc(-c5cccc(C#N)c5)ccc4=O)c3)nc2)CC1` [Tepotinib, reference compound]: the half-life in data set [1] (Sprague-Dawley, rat, SD rats liver microsome) came out at 0.301 h; in data set [1] (cynomolgus monkey, Macaca fascicularis liver microsome) it was 22.5 h; in data set [1] (dog, Beagle liver microsome), 1.04 h; in data set [1] (Human liver microsome), 30.5 h; in data set [1] (mouse, CD - 1 mice liver microsome), 0.252 h. For the same compound, the values for the IC50 with ASPC1, in the data set with HS746T and in the data set with MKN45 were 3.78 µM, 3.6 µM and 0.00165 µM, respectively. Also, the “Tumor growth inhibition (TGI)” value in the data set on MHCC97H xenograft tumor is reported as 63.9%. The TGI in the data set on MKN45 xenograft tumor stood at 67.61%. Also, the “Inhibition of kinases other than c-Met” value in the data set with 284 kinases is recorded as “not able to inhibit any other kinase”.

What is called half-life is how long it takes for the measured level to halve. A high value points to slow decline. In general, TGI refers to the reduction of tumour growth relative to the control group.

(Values after PMC10636171 (Cell Death & Disease, 2023).)
